# Measured values published in US7138113B2, “Glycoprotein matrix compositions and methods related thereto” (Pharmachem Laboratories, Inc., priority 2001, dated 2006).
# Columns and labels:
# [1] = tested on: lower density lipoproteins (LDL+VLDL); test: Inhibition of cupric ion oxidation of lower density lipoproteins (quality of antioxidant activity); conditions: 6 hours
# [2] = Stability of CoQ10 in a 50° C. oven open to the air (HPLC); format: physicochemical; conditions: for Loss of CoQ10 after 36 days at 50° C. (equivalent to 3 months at room temperature) / Loss of CoQ10 after 72 days at 50° C. (equivalent to 6 months at room temperature): open to the air
# Method: 100 mg of USP CoQ10 (Sigma) and a composition from Example 1 was placed in a 10 ml beaker in a 50° C. oven open to the air. The amount of CoQ10 remaining was analyzed by HPLC using a C18 column (Perkin Elmer Pecosil 5, 15 cm) and a solvent of 75% methanol and 25% isopropanol.
Compound,"IC50 ([1]; LDL+VLDL oxidation, 25 μM cupric ion, 37° C., based on CoQ10 conc.)",Loss of CoQ10 at 0 days ([2]; 0 days),Loss of CoQ10 after 36 days at 50° C. (equivalent to 3 months at room temperature) ([2]; listed as USP CoQ10),Loss of CoQ10 after 36 days at 50° C. (equivalent to 3 months at room temperature) ([2]; listed as commercial CoQ10),Loss of CoQ10 after 72 days at 50° C. (equivalent to 6 months at room temperature) ([2]; listed as USP CoQ10),Loss of CoQ10 after 72 days at 50° C. (equivalent to 6 months at room temperature) ([2]; listed as commercial sample),"IC50 ([1]; concentration of selenium to inhibit LDL+VLDL oxidation 50%, cupric ion)"
"COC1=C(OC)C(=O)C(C/C=C(\C)CC/C=C(\C)CC/C=C(\C)CC/C=C(\C)CC/C=C(\C)CC/C=C(\C)CC/C=C(\C)CC/C=C(\C)CC/C=C(\C)CCC=C(C)C)=C(C)C1=O [CoQ10 (USP), CoEnzyme Q10]",1.33 µM,0%,6.8%,6.8%,16.8%,16.8%,–
C[Se]CC[C@H](N)C(=O)O [Selenomethionine],–,–,–,–,–,–,27 µM
